Earlier results in patent US20030133872A1, “Radiopharmaceutical agent for the treatment of early stage cancer” (priority 2001, published 2003).

Conditions: Woolfenden et al., Int. J. Nucl. Med. 10 (4), 251-256 (1983)

For `[153Sm+3].[Cl-].[Cl-].[Cl-]` [^153Sm-chloride], the liver uptake is given as “high liver uptake”.
